# What was measured:
# Type in all cases: cell-based, human
# RBPJk = assay: COX412-luciferase dual luciferase reporter assay in MELAS cybrid cells overexpressing MNRR1; settings: MELAS cybrid cells overexpressing MNRR1, 0.5 μM
# Source text: FIGS. 12A-12C: FIG. 12A: Dual luciferase reporter assay showing relative activation of MNRR1-luciferase levels in MELAS cybrid cells overexpressing varying proportions of empty vector (EV) and constitutively active RBPJk (RBP-CA). FIG. 12B: Dual luciferase reporter assay showing relative activation of MNRR1-luciferase levels in MELAS cybrid cells overexpressing an empty vector (EV) or constitutively active RBPJk (RBP-CA) and HIF2α. FIG. 12C: Dual luciferase reporter assay showing relative activation of COX412-luciferase levels in MELAS cybrid cells overexpressing an empty vector (EV), MNRR1, and MNRR1+Auranofin (0.5 μM).
# Luciferase reporter assay: Luciferase assays were performed with the dual-luciferase reporter assay kit (Promega). Briefly, cells were lysed in 1× passive lysis buffer (Promega) and 25 μL of lysate was used for assay with a tube luminometer using an integration time of 10 s. Transfection efficiency was normalized with the co-transfected pRL-SV40 Renilla luciferase expression plasmid.
# MNRR1 = MNRR1 protein levels in MELAS cybrid cells (immunoblot); settings: MELAS cybrid cells, 10 μM, 24 h
# Procedure: FIGS. 6A-6C: FIG. 6A: Above, Chemical structures of nitazoxanide, its metabolites, and similar compounds. Abbreviations: P4, Phenyl-4-aminosalicylic acid; 4ABA, 4-Aminobenzanilide; 4ASA, 4-Amino salicylic acid; BA, Benzanilide; PBO, Phenyl benzoate; PSA, Phenyl salicylic acid; 2AN, 2-Amino 5-nitrothiazole. Below, Equal amounts of lysates of MELAS cells treated with Vehicle (DMSO) or the various compounds (10 μM) for 24 h were separated on an SDS-PAGE gel and probed for MNRR1 levels. Actin was probed as a loading control and numbers below represent an average and SD of 3 biological replicates. FIGS. 6B-6C: MNRR1 transcript levels are shown relative to 18S rRNA (n=4 biological replicates, error bars represent SE). In all figures, * indicates p<0.05, ** indicates p<0.005.
# FIGS. 11A-11F: RBPJk and HIF2α compete for binding at the ORE in the MNRR1 promoter to regulate transcription. FIG. 11A: Chromatin immunoprecipitation-qPCR assessing binding of HIF2α to the endogenous MNRR1 promoter in MELAS cybrid cells with 0% (CL9) and 70% heteroplasmy (DW7). FIG. 11B: Dual luciferase reporter assay showing relative activation of MNRR1-luciferase levels in MELAS cybrid cells overexpressing varying proportions of constitutively active RBPJk (RBP-CA) and HIF2α. FIG. 11C: Dual luciferase reporter assay showing relative activation of MNRR1-luciferase levels in MELAS cybrid cells overexpressing the WT (FIG. 9A) or ΔORE (positions 47-53 in SEQ ID NO: 25 in FIG. 9C) promoter with EV (dotted line) or HIF2α. FIG. 11D: Equal amounts of Control or HIFα knockdown (KD) MELAS cybrid cell lysates were separated on an SDS-PAGE gel and probed for HIF2α and MNRR1 levels. Tubulin was probed as loading control. FIG. 11E: Oxygen consumption measured from Control or HIFα knockdown (KD) MELAS cybrid cells. (n=4 biological replicates, error bars represent SE). FIG. 11F: Left, Oxygen consumption measured from MELAS cybrid cells treated with vehicle (DMSO) or PT2385 (10 μM), an inhibitor of HIF2α function, for 24 h. Right, Equal amounts of MELAS cybrid cell lysates treated with vehicle (DMSO) or PT2385 (10 μM) for 24 h, separated on an SDS-PAGE gel, and probed for MNRR1 levels. GAPDH was probed as a loading control.
# Immunoblotting: Immunoblotting was performed as described previously. Cell lysates for immunoblotting were prepared using RIPA buffer (Abcam, Waltham, MA) and included a protease and phosphatase inhibitor cocktail (Sigma, St. Louis, MO). […] The clear supernatants were transferred to new tubes and quantified using the Bradford reagent with BSA as standard (BioRad, Hercules. CA). […] For detection after immunoblotting, the SuperSignal™ West Pico PLUS substrate (ThermoFisher, Waltham, MA) was used to generate chemiluminescence signal, which was detected with X-Ray film (RadTech, Vassar, MI).
# MELAS cybrid cells = assay: Oxygen consumption of MELAS cybrid cells (Seahorse); settings: 10 μM, 24 h
# Procedure: FIGS. 7A-7E: MNRR1 activation by tizoxanide enhances mtDNA biogenesis and mitophagy to shift heteroplasmy in MELAS cells. FIG. 7A: Oxygen consumption measured from MELAS cybrid cells treated with vehicle (DMSO) or tizoxanide (10 μM) for 48 h (n=4 biological replicates, error bars represent SE). FIG. 7B: Haelll restriction enzyme digestion of a PCR-amplified fragment of mtDNA harboring the m.3243A>G mutation from DW7 cells treated with vehicle (DMSO) or tizoxanide (10 μM) for 144 h. […] FIG. 7C: Genes identified using qPCR of MELAS cybrid cells stably overexpressing EV or MNRR1. FIG. 7D: MtDNA levels are shown relative to nuclear DNA (nDNA) (GAPDH) (n=5 biological replicates, error bars represent SE). […]
# FIGS. 11A-11F: RBPJk and HIF2α compete for binding at the ORE in the MNRR1 promoter to regulate transcription. […] FIG. 11E: Oxygen consumption measured from Control or HIFα knockdown (KD) MELAS cybrid cells. […] FIG. 11F: Left, Oxygen consumption measured from MELAS cybrid cells treated with vehicle (DMSO) or PT2385 (10 μM), an inhibitor of HIF2α function, for 24 h. […]
# Intact cellular oxygen consumption and measurement of ATP: Cellular oxygen consumption was measured with a Seahorse XFe24 Bioanalyzer (Agilent). Cells were plated at a concentration of 3.5×10^4 per well a day prior to treatment and basal oxygen consumption was measured 48 h after treatments, as described. […]
smiles,measurement,setting,value
"CC(=O)OC[C@H]1O[C@@H]([S-])[C@H](OC(C)=O)[C@@H](OC(C)=O)[C@@H]1OC(C)=O.CCP(CC)CC.[Au+] [Auranonfin, Auranofin]",MNRR1 induced transcription (COX412-luciferase),RBPJk,able to block the effects of MNRR1 induced transcription
CS(=O)(=O)c1ccc(Oc2cc(F)cc(C#N)c2)c2c1[C@H](O)C(F)(F)C2 [PT2385],MNRR1 protein,MNRR1,rebound increase
same,OCR,MELAS cybrid cells,rebound increase
